Each compound was assayed against T1, GST-tagged truncated human mutant G2019S LRRK2 (Homo sapiens, UniProt Q5S007, G2019S) (assay: LRRK2 G2019S Km ATP LanthaScreen assay). Conditions: 134 μM ATP (Km ATP), LRRKtide substrate, mean of several tests.
T1 construct: GST-tagged truncated human mutant G2019S LRRK2; purchased Life Technologies Corporation (Carlsbad, CA)
Format: biochemical
In short: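 GST-tagged truncated human LRRK2 G2019S (1.25 nM enzyme solution) was preincubated 15 min with compound, then reacted 90 min at ambient temperature with fluorescein-LRRKtide (400 nM solution) and 134 μM ATP (Km) in Tris pH 8.5. EDTA stop; Tb anti-phospho-LRRKtide TR-FRET (520/495 ratio). IC50 from 4-parameter fits, mean of several runs.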

T1 sequence (Q5S007 970-2527 G2019S limits assumed): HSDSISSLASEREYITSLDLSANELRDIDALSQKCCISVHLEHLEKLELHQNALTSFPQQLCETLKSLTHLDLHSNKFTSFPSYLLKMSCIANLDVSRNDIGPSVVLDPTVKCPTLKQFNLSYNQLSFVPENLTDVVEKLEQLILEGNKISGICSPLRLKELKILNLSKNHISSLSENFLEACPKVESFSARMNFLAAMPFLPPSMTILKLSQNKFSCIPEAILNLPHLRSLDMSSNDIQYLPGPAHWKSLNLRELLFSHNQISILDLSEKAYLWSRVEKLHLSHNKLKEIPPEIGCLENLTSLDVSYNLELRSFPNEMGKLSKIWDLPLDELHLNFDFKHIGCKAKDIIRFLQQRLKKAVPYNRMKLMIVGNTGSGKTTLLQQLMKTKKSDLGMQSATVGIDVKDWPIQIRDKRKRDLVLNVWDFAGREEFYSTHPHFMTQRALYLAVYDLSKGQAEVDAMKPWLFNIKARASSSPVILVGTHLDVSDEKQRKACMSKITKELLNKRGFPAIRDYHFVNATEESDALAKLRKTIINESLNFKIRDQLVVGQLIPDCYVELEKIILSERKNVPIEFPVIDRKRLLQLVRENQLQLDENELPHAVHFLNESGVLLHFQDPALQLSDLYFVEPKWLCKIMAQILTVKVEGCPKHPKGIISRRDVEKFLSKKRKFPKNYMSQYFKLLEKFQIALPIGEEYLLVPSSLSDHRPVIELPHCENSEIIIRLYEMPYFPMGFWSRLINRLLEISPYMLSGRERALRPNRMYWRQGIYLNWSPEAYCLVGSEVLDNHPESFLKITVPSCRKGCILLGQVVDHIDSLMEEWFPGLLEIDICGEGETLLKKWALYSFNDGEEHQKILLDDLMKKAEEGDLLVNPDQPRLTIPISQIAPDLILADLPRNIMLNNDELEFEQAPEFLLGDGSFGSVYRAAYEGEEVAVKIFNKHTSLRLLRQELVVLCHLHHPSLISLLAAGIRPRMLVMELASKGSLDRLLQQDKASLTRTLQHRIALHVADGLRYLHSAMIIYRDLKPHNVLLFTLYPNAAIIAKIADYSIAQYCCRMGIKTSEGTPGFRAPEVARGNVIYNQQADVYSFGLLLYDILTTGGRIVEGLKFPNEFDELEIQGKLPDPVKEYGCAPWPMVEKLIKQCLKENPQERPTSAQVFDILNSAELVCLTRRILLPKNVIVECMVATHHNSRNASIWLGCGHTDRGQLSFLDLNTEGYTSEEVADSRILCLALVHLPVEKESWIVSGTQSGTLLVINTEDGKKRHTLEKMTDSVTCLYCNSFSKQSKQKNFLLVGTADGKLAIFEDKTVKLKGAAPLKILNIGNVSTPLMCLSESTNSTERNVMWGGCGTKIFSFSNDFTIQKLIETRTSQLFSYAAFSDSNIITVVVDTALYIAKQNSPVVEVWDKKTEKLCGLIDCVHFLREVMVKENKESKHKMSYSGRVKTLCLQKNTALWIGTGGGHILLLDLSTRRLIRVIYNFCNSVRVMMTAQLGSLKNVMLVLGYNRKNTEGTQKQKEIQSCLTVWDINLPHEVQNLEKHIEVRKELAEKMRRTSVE

Row | Compound | LRRK2 pIC50
1 | O=C(Nc1cc2cc(N3CCC(N4CC(F)C4)CC3)c(Cl)cc2cn1)C1CC12CCOCC2 (stereo not drawn) [Ex-4.6] | 8.61
2 | (3R or 3S)-N-[6-[4-((3R,4R or 3S,4S)-4-fluoro-3-methyl-tetrahydrofuran-3-yl)piperazin-1-yl]-7-methyl-3-isoquinolyl]-5,5-dimethyl-tetrahydrofuran-3-carboxamide [Ex-10.96] | 8.99
3 | O=C(Nc1cc2cc(N3CCC(N4CC(F)(F)C4)CC3)c(Cl)cc2cn1)C1CC12CCOCC2 (stereo not drawn) [Ex-4.7] | 7.93

Same assay, conditions: 134 μM ATP (Km ATP), LRRKtide substrate, mean of several tests, read-out: LRRK2 pIC50 (converted)

Row | Compound | IC50 [nM]
4 | Cc1cc2cnc(NC(=O)C3CC3c3ccccn3)cc2cc1N1CCN(C2(C)COCC2F)CC1 (single isomer, unassigned) [Ex-6.13] | 0.0813
5 | COC1COCC1N1CCN(c2cc3cc(NC(=O)C4CC45CCOCC5)ncc3cc2Cl)CC1 (single isomer, unassigned) [Ex-5.9] | 1510
6 | CC1(C2CCOC2)CC1C(=O)Nc1cc2cc(N3CCN(C4(C)COCC4O)CC3)c(Cl)cc2cn1 (single isomer, unassigned) [Ex-10.82, (1R,2R or 1S,2S, or 1R,2S, or 1S,2R)-N-[7-chloro-6-[4-((3R,4R or 3S,4S)-4-hydroxy-3-methyl-tetrahydrofuran-3-yl)piperazin-1-yl]-3-isoquinolyl]-2-methyl-2-tetrahydrofuran-3-yl-cyclopropanecarboxamide] | 0.1
7 | CC1(N2CCN(c3cc4cc(NC(=O)C5CC5)ncc4cc3F)CC2)COCC1O (single isomer, unassigned) [Ex-1.6, (3R,4R or 3S,4S)-N-(7-fluoro-6-(4-(4-hydroxy-3-methyltetrahydrofuran-3-yl)piperazin-1-yl)isoquinolin-3-yl)cyclopropanecarboxamide] | 912
8 | CC1(C2CCOC2)CC1C(=O)Nc1cc2cc(N3CCN(C4(C)COCC4O)CC3)c(Cl)cc2cn1 (single isomer, unassigned) [Ex-10.88, (1R,2R or 1S,2S, or 1R,2S, or 1S,2R)-N-[7-chloro-6-[4-((3R,4R or 3S,4S)-4-hydroxy-3-methyl-tetrahydrofuran-3-yl)piperazin-1-yl]-3-isoquinolyl]-2-methyl-2-tetrahydrofuran-3-yl-cyclopropanecarboxamide] | 0.182
9 | COC1COCC1N1CCN(c2cc3cc(NC(=O)C4CC45CCOCC5)ncc3cc2Cl)CC1 (single isomer, unassigned) [Ex-5.10] | 38
10 | CCC1C(C(=O)Nc2cc3cc(N4CCN(C5(C)COCC5F)CC4)c(Cl)cc3cn2)C1c1ccccn1 (single isomer, unassigned) [Ex-10.89, (1R,2R,3R, or 1R,2S,3R, or 1S,2R,3S, or 1S,2S,3S)-N-[7-chloro-6-[4-((3R,4R or 3S,4S)-4-fluoro-3-methyl-tetrahydrofuran-3-yl)piperazin-1-yl]-3-isoquinolyl]-2-ethyl-3-(2-pyridyl)cyclopropanecarboxamide] | 0.0813
11 | C[C@H]1CN(C2(C)COCC2O)CCN1c1cc2cc(NC(=O)C3CC34CCOCC4)ncc2cc1Cl (single isomer, unassigned) [Ex-14.2, N-(7-chloro-6-((2R or 2S)-4-(4-(3R,4R or 3S,4S)-hydroxy-3-methyltetrahydrofuran-3-yl)-2-methylpiperazin-1-yl)isoquinolin-3-yl)-6-oxaspiro[2.5]octane-1-carboxamide] | 0.0813
12 | CC1(N2CCN(c3cc4cc(NC(=O)C5CCC5c5ccccn5)ncc4cc3Cl)CC2)COCC1O (single isomer, unassigned) [Ex-11.6, (1R,2R or 1S,2S)-N-(7-chloro-6-(4-((3R,4R or 3S,4S)-4-hydroxy-3-methyltetrahydrofuran-3-yl)piperazin-1-yl)isoquinolin-3-yl)-2-(pyridin-2-yl)cyclobutane-1-carboxamide] | 0.132
13 | CC1(N2CCN(c3cc4cc(NC(=O)C5CC56CCCOC6)ncc4cc3Cl)CC2)COCC1O (single isomer, unassigned) [Ex-1.12, (1R,3S, or 1R,3R, or 1S,3S, or 1S,3R)-N-(7-chloro-6-(4-((3R,4R or 3S,4S)-4-hydroxy-3-methyltetrahydrofuran-3-yl)piperazin-1-yl)isoquinolin-3-yl)-5-oxaspiro[2.5]octane-1-carboxamide] | 3.72
15 | Cc1cc2cnc(NC(=O)C3CC34CCOCC4)cc2cc1N1CCN(C2(C)COCC2O)C[C@@H]1C (single isomer, unassigned) [Ex-15.2, (R or S)-N-(6-((2R or 2S)-4-(4-(3R,4R or 3S,4S)-hydroxy-3-methyltetrahydrofuran-3-yl)-2-methylpiperazin-1-yl)-7-methylisoquinolin-3-yl)-6-oxaspiro[2.5]octane-1-carboxamide] | 0.0813
16 | CC1(N2CCN(c3cc4cc(NC(=O)C5CC56CCCOC6)ncc4cc3Cl)CC2)COCC1O (single isomer, unassigned) [Ex-1.15, (1R,3S, or 1R,3R, or 1S,3S, or 1S,3R)-N-(7-chloro-6-(4-((3R,4R or 3S,4S)-4-hydroxy-3-methyltetrahydrofuran-3-yl)piperazin-1-yl)isoquinolin-3-yl)-5-oxaspiro[2.5]octane-1-carboxamide] | 46.8
17 | CC1(N2CCN(c3cc4cc(NC(=O)C5CC56CC6)ncc4cc3Cl)CC2)COCC1O (single isomer, unassigned) [Ex-2.12, (R or S)-N-(7-chloro-6-(4-((3R,4R or 3S,4S)-4-hydroxy-3-methyltetrahydrofuran-3-yl)piperazin-1-yl)isoquinolin-3-yl)spiro[2.2]pentane-1-carboxamide] | 0.513
18 | CCC1C(C(=O)Nc2cc3cc(N4CCN(C5(C)COCC5F)CC4)c(Cl)cc3cn2)C1c1ccn(C)n1 (single isomer, unassigned) [Ex-10.52, (1R,2R,3R, 1R,2S,3R, or 1S,2R,3S, or 1S,2S,3S)-N-[7-chloro-6-[4-((3R,4R or 3S,4S)-4-fluoro-3-methyl-tetrahydrofuran-3-yl)piperazin-1-yl]-3-isoquinolyl]-2-ethyl-3-(1-methylpyrazol-3-yl)cyclopropanecarboxamide] | 0.603
20 | O=C(Nc1cc2cc(N3C(=O)C4CCC3C4)ccc2cn1)C1CC1 (single isomer, unassigned) [Ex-5.2] | 25.7
21 | Cc1cc2cnc(NC(=O)C3CC34CCOC4)cc2cc1N1CCN(C2(C)COCC2O)CC1 (single isomer, unassigned) [Ex-6.6, (1R, 3S or 1S,3R, or 1R,3S, or 1S,3S)-N-(6-(4-((3R, 4R or 3S,4S)-4-hydroxy-3-methyltetrahydrofuran-3-yl)piperazin-1-yl)-7-methylisoquinolin-3-yl)-5-oxaspiro[2.4]heptane-1-carboxamide] | 45.7

From US12516039B2, “N-linked isoquinoline amides as LRRK2 inhibitors, pharmaceutical compositions, and uses thereof” (Merck Sharp & Dohme LLC, priority 2020, dated 2026)
